Patent EP4818168A1, “FUSED RING COMPOUND, PHARMACEUTICAL COMPOSITION THEREOF AND USE THEREOF” (priority 2023, dated 2025)
Where two headings read alike, the source gives them in different places.

Biological target: T1, AURKA (Homo sapiens, UniProt O14965)
T1 construct: endogenous in cells; host or cells: Jurkat cells
T1 sequence (O14965 1-403): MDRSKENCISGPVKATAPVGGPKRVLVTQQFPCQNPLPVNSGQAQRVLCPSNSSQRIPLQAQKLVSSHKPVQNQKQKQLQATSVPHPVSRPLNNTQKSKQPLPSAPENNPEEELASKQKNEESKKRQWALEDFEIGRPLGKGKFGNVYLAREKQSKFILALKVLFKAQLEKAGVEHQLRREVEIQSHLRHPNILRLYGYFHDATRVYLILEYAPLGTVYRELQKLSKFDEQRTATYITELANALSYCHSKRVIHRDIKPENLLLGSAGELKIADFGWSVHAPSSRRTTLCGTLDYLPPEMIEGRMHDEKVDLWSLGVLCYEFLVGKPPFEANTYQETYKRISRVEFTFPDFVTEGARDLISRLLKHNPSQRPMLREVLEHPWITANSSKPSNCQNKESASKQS
Assay type: cell-based
Settings: Jurkat cells, 24 h
Text: WB is a classical biochemical experimental method used to detect the abundance of a target protein in a sample of cells or biological tissue. It relies on specific antigen-antibody binding to detect protein signals from the sample processed by gel electrophoresis: the protein specifically binds to a primary antibody at an epitope; the primary antibody is then conjugated with a secondary antibody to amplify the signal cascade; the signal is read out by chemiluminescent or fluorescent detection. The intracellular protein content is ultimately characterized by the intensity of the optical signals. […] The DC50 value can be calculated by curve fitting of the protein WB exposure signals.
The experimental procedure is as follows: • 1. Seed Jurkat cells into a 12-well plate at 1×10^6 cells/500 µL/well. • 2. Mix the culture medium with the compound to a concentration that is twice the desired final concentration. […] Transfer the cell suspension to a centrifuge tube. Rinse the 12-well plate with PBS and then transfer the PBS from the plate to the same centrifuge tube. Centrifuge at 3000 rpm for 5 min at room temperature. Aspirate the supernatant using a vacuum pump. […] Lyse on ice for 20 min. • 4. Centrifuge the lysed sample at 13000 rpm for 20 min at 4°C. Mix the supernatant with 5× protein loading buffer. Boil at 100°C for 5 min and then cool. Store the denatured protein sample at -20°C. • 5. […] Run electrophoresis at 80 V for 20 min, and then at 120 V constant voltage for 60 min. • 6. Transfer the protein onto a nitrocellulose membrane in an ice bath at 250 mA constant current for 90 min. • 7. […] Incubate with a primary antibody overnight at 4°C. • 9. […] Incubate with a secondary antibody for 1-2 h at room temperature. • 10. […] Expose and image the membrane using a LICOR Odyssey DLx imager.

Compound	Percentage of AURKA Degradation Induced by 100 nM Compound in Jurkat Cells (Table 1)	Percentage of AURKA Degradation Induced by 1 µM Compound in Jurkat Cells (Table 1)	Percentage of AURKA Degradation Induced by 100 nM Compound in Jurkat Cells (Table 2)	Percentage of AURKA Degradation Induced by 1 µM Compound in Jurkat Cells (Table 2)
COc1cc(Nc2ncc3c(n2)-c2ccc(Cl)cc2C(c2c(F)cccc2OC)=NC3)ccc1C(=O)N[C@H]1C[C@@H](C#Cc2cccc3c2CN(C2CCC(=O)NC2=O)C3=O)C1 (relative stereo) [Compound A6]	++ (30% < Degradation ≤ 70%)	+ (Degradation ≤ 30%)		
COc1cc(Nc2ncc3c(n2)-c2ccc(Cl)cc2C(c2c(F)cccc2OC)=NC3)ccc1C(=O)NCCOCCNc1cccn2c(N3CCC(=O)NC3=O)cnc12 [Compound A20]	++ (30% < Degradation ≤ 70%)	++ (30% < Degradation ≤ 70%)		
COc1cc(Nc2ncc3c(n2)-c2ccc(Cl)cc2C(c2c(F)cccc2OC)=NC3)ccc1C(=O)NCCN1CCN(c2ccc(-n3ccc(=O)[nH]c3=O)cn2)CC1 [Compound A31]	++ (30% < Degradation ≤ 70%)	++ (30% < Degradation ≤ 70%)		
O=C1CCN(c2ccc(C#C[C@H]3C[C@H](NC(=O)c4ccc(Nc5ncc6c(n5)-c5ccc(Cl)cc5C(c5c(F)cccc5F)=NC6)cc4)C3)cc2)C(=O)N1 [Compound A53]	++ (30% < Degradation ≤ 70%)	++ (30% < Degradation ≤ 70%)		
O=C1CCN(c2ccc(N3CC4(CC(NC(=O)c5ccc(Nc6ncc7c(n6)-c6ccc(Cl)cc6C(c6c(F)cccc6F)=NC7)cc5)C4)C3)nc2)C(=O)N1 [Compound A60]	+++ (Degradation > 70%)	+++ (Degradation > 70%)		
O=C1CCN(c2cccc(N3CC4(CC(NC(=O)c5ccc(Nc6ncc7c(n6)-c6ccc(Cl)cc6C(c6c(F)cccc6F)=NC7)cc5)C4)C3)c2)C(=O)N1 [Compound A62]	++ (30% < Degradation ≤ 70%)	++ (30% < Degradation ≤ 70%)		
CN1C(=O)CCN(c2ccc(N3CCC4(CC3)CC(NC(=O)c3ccc(Nc5ncc6c(n5)-c5ccc(Cl)cc5C(c5c(F)cccc5F)=NC6)cc3)C4)nc2)C1=O [Compound A82]			+ (Degradation ≤ 30%)	+ (Degradation ≤ 30%)
O=C1CCN(c2ccc(N3CC(N4CC(NC(=O)c5ccc(Nc6ncc7c(n6)-c6ccc(Cl)cc6C(c6c(F)cccc6F)=NC7)cc5)C4)C3)nc2)C(=O)N1 [Compound A84]			++ (30% < Degradation ≤ 70%)	+++ (Degradation > 70%)
O=C1CCN(C23CCC(N4CCN(CCNC(=O)c5ccc(Nc6ncc7c(n6)-c6ccc(Cl)cc6C(c6c(F)cccc6F)=NC7)cc5)CC4)(CC2)CC3)C(=O)N1 [Compound A91]			+ (Degradation ≤ 30%)	+ (Degradation ≤ 30%)
O=C1CCN(C23CC(N4CCN(CCNC(=O)c5ccc(Nc6ncc7c(n6)-c6ccc(Cl)cc6C(c6c(F)cccc6F)=NC7)cc5)CC4)(C2)C3)C(=O)N1 [Compound A92]			+ (Degradation ≤ 30%)	+ (Degradation ≤ 30%)
O=C1CCN(c2ccc(N3CCC4(CC3)CC(NC(=O)c3ccc(Nc5ncc6c(n5)-c5ccc(Cl)cc5C(c5c(F)cccc5F)=NC6)cc3)C4)c(F)c2)C(=O)N1 [Compound A93]			++ (30% < Degradation ≤ 70%)	+++ (Degradation > 70%)
O=C1CCN(c2ccc(N3CCN(CCNc4ccc(Nc5ncc6c(n5)-c5ccc(Cl)cc5C(c5c(F)cccc5F)=NC6)cc4)CC3)cc2)C(=O)N1 [Compound A108]			+ (Degradation ≤ 30%)	+ (Degradation ≤ 30%)
O=C1CCN(c2ccc(N3CCN(CCn4ccnc4-c4ccc(Nc5ncc6c(n5)-c5ccc(Cl)cc5C(c5c(F)cccc5F)=NC6)cc4)CC3)cc2)C(=O)N1 [Compound A111]			+ (Degradation ≤ 30%)	+ (Degradation ≤ 30%)
O=C1CCN(c2ccc([C@H]3C[C@H](N4CC(NC(=O)c5ccc(Nc6ncc7c(n6)-c6ccc(Cl)cc6C(c6c(F)cccc6F)=NC7)cc5)C4)C3)nc2)C(=O)N1 [Compound A113]			+++ (Degradation > 70%)	++ (30% < Degradation ≤ 70%)
O=C1CCN(c2ccc([C@H]3C[C@@H](N4CC(NC(=O)c5ccc(Nc6ncc7c(n6)-c6ccc(Cl)cc6C(c6c(F)cccc6F)=NC7)cc5)C4)C3)nc2)C(=O)N1 [Compound A114]			+++ (Degradation > 70%)	+++ (Degradation > 70%)
Cc1ccc(N2CCN(CCC#Cc3cccc(Nc4ncc5c(n4)-c4ccc(Cl)cc4C(c4c(F)cccc4F)=NC5)c3)CC2)cc1N1CCC(=O)NC1=O [Compound A117]			++ (30% < Degradation ≤ 70%)	++ (30% < Degradation ≤ 70%)
O=C1CCN(c2ccc(N3CCC4(CC3)CC(NC(=O)c3ccc(Nc5ncc6c(n5)-c5ccc(Cl)cc5C(c5ccccc5Cl)=NC6)cc3)C4)nc2)C(=O)N1 [Compound A119]			+++ (Degradation > 70%)	+++ (Degradation > 70%)
O=C1CCN(c2cccc(N3CCN(CC#Cc4ccc(Nc5ncc6c(n5)-c5ccc(Cl)cc5C(c5c(F)cccc5F)=NC6)cc4)CC3)c2)C(=O)N1 [Compound A123]			+ (Degradation ≤ 30%)	+ (Degradation ≤ 30%)
O=C1CCN(c2ccc(C#CCN3CCn4c(cnc4-c4ccc(Nc5ncc6c(n5)-c5ccc(Cl)cc5C(c5c(F)cccc5F)=NC6)cc4)C3)cc2)C(=O)N1 [Compound A139]			+++ (Degradation > 70%)	+++ (Degradation > 70%)
O=C1CCN(c2cnc(N3CCC(N4CCN(c5ccc(Nc6ncc7c(n6)-c6ccc(Cl)cc6C(c6c(F)cccc6F)=NC7)cc5)C(=O)C4)CC3)s2)C(=O)N1 [Compound A154]			+++ (Degradation > 70%)	++ (30% < Degradation ≤ 70%)
O=C1CCN(c2ccc(N3CCC(Cn4cnc(-c5ccc(Nc6ncc7c(n6)-c6ccc(Cl)cc6C(c6c(F)cccc6F)=NC7)cc5)c4)CC3)nc2)C(=O)N1 [Compound A159]			+++ (Degradation > 70%)	+++ (Degradation > 70%)
O=C1CCN(c2ccc(N3CC(Cn4cnc(-c5ccc(Nc6ncc7c(n6)-c6ccc(Cl)cc6C(c6c(F)cccc6F)=NC7)cc5)c4)C3)nc2)C(=O)N1 [Compound A160]			++ (30% < Degradation ≤ 70%)	++ (30% < Degradation ≤ 70%)
Cc1c(N2CCC(C#Cc3cccc(Nc4ncc5c(n4)-c4ccc(Cl)cc4C(c4c(F)cccc4F)=NC5)c3)CC2)cccc1N1CCC(=O)NC1=O [Compound A161]			+ (Degradation ≤ 30%)	++ (30% < Degradation ≤ 70%)
